Measured values published in publication PMC9043592, “New triterpenes from Cimicifuga yunnanensis down-regulating the mRNA expression of CD147, MMP-2, and MMP-9” (RSC Advances, 2021).

Key:
[1] = tested on: CD147 and MMPs mRNA expression; parameters: method as in PMID 35541353, doi:10.1016/j.phytol.2021.01.009; conditions: previously identified CTs from C. foetida; cited from earlier work
[2] = tested on: CD147 (extracellular matrix metalloproteinase inducer, EMMPRIN) mRNA expression; experiment: q-PCR, mRNA expression of CD147 in PMA-induced THP-1 cells; type: cell-based, Human; conditions: 24 h; for CD147 mRNA inhibitory effect compared with YG (positive control) / suppression of the mRNA expression of CD147 (in words): 10 μM; for IC50: Homo sapiens, q-PCR 2^-ΔΔCt, 1-50 μM, read-out: IC50, suppression of mRNA expression of CD147
Description: (§1) Human monocytic THP-1 cells were cultured at 37 °C by DMEM/F12 medium supplemented with 10% fetal bovine serum and 1% penicillin/streptomycin in a humidified atmosphere of 5% CO2. Cells (5 × 10^5 to 10^6 per mL) were subjected to differentiation by 100 nM PMA for 24 h with DMEM/F12 serum medium. After incubation, the adherent cells were washed with DMEM/F12. Nonattached cells were removed by aspiration.
RevertAid™ First Strand cDNA Synthesis Kit was applied to extract total RNA of differentiated THP-1 cells treated with compounds 3–5, 9 and 11 (10 μM), along with 7 and 8 (1, 3, 10, 25, and 50 μM) for 24 h (5 × 10^5 cells per mL) following the manufacturer's instructions. cDNA was synthesized from the isolated total RNA based on the instruction of the PrimeScript RT reagent Kit. Briefly, PrimeScript RT Enzyme Mix 1 (0.5 μL), 5 × PrimeScriptTM Buffer (2 μL), oligo dt Primer (0.5 μL) and Random 6 mers (0.5 μL) were gently mixed with 1 μg RNA from each sample to a reaction volume of 10 μL with RNase free water, then incubated for 15 minutes at 37 °C to activate the reverse transcriptase enzyme. Finally, the reaction was stopped by 85 °C for 5 seconds.
After reverse transcription, cDNA was used to carry out real-time quantitative RT-PCR on ProFlex™ PCR system by SYBR Premix Ex Taq (Takara). The final volume of TR-PCR reaction is 25 μL, containing 12.5 μL SYBR green master mix, 1 μL cDNA, 0.5 μL each forward and reverse primer, and 10.5 μL nuclease-free water. For information of primers see Table S1. ^† Thermal cycling conditions for all genes were as follows: template pre-denaturation (10 min at 95 °C), denaturation (15 seconds at 95 °C), annealing and extension (30 seconds at 60 °C) for 40 cycles. Internal reference is GAPDH mRNA, and fold changes of mRNA expression for each target relative to GAPDH were calculated by the 2^−ΔΔCt method. Expression of mRNA is determined as the change in mRNA copy numbers relative to negative control cells (undifferentiated THP-1 cells). All the experiments were carried out in triplicate.

MMP-2 mRNA expression = experiment: q-PCR, mRNA expression of MMP-2 in PMA-induced THP-1 cells; type: cell-based, Human; conditions: 24 h
Description: as §1
(§2) RevertAid™ First Strand cDNA Synthesis Kit was applied to extract total RNA of differentiated THP-1 cells treated with compounds 3–5, 9 and 11 (10 μM), along with 7 and 8 (1, 3, 10, 25, and 50 μM) for 24 h (5 × 10^5 cells per mL) following the manufacturer's instructions. cDNA was synthesized from the isolated total RNA based on the instruction of the PrimeScript RT reagent Kit. […]
(§3) After reverse transcription, cDNA was used to carry out real-time quantitative RT-PCR on ProFlex™ PCR system by SYBR Premix Ex Taq (Takara). […] Internal reference is GAPDH mRNA, and fold changes of mRNA expression for each target relative to GAPDH were calculated by the 2^−ΔΔCt method. Expression of mRNA is determined as the change in mRNA copy numbers relative to negative control cells (undifferentiated THP-1 cells). […]

MMP-9 mRNA expression = experiment: q-PCR, mRNA expression of MMP-9 in PMA-induced THP-1 cells; type: cell-based, Human; conditions: 24 h
Description: as §1, §2, §3

[3] = tested on: migration of PMA-induced THP-1 cells; experiment: Wound-healing (scratch wound) migration assay; type: cell-based; conditions: Homo sapiens, 24 h incubation, read-out: IC50, decrease of number of migrated cells
Description: as §1
The differentiated THP-1 cells were seeded and grown into full confluence in 6 well plates. 2% FBS DMEM/F12 media was used to inactivated cell proliferation for 12 h, then wounded with pipette tips. Fresh DMEM/F12 medium with or without 1, 3, 10, 25, and 50 μM of 7 was added to the scratched monolayers. Images were took after 24 hours using a Nickon inverted microscope (magnification, 10×). The migration cell number of PMA-induced THP-1 cell group was defined as control. All the experiments were performed in triplicate.

Molecule	inhibitions on CD147 and MMPs mRNA expression (in words) [1]	CD147 mRNA inhibitory effect compared with YG (positive control) [2]	suppression of the mRNA expression of CD147 (in words) [2]	IC50 [2] [µM]	IC50 (MMP-2 mRNA expression; Homo sapiens, q-PCR, 1-50 μM, read-out: IC50, down-regulation of mRNA expression of MMP-2) [µM]	IC50 (MMP-9 mRNA expression; Homo sapiens, q-PCR, 1-50 μM, read-out: IC50, down-regulation of mRNA expression of MMP-9) [µM]	IC50 [3] [µM]	decrease of MMP-2 mRNA expression (MMP-2 mRNA expression; 10 μM, P < 0.01) [%]	decrease of MMP-9 mRNA expression (MMP-9 mRNA expression; 10 μM, P < 0.01) [%]
12β-hydroxycimiacerol [HC]	notable inhibitions	–	–	–	–	–	–	–	–
CC1CC(C(O)C(C)(C)O)OC2(O)C(=O)C3(C)C4=CCC5C(C)(C)C(=O)CCC56CC46CC(O)C3(C)C12 [Compound 7, (23R,24S)-12β-Hydroxy-7(8)-en-3,15-dione-hydroxyshengmanol]	–	more potent than YG	noticeably suppressed	3.38 ± 0.27	6.32 ± 0.31	11.6 ± 0.23	5.87 ± 0.27	–	–
CC1C(O)C2(OC3CC4(C)C5CCC6C(C)(C)C(O)CCC67CC57CCC4(C)C31)OC2C(C)(C)O (stereo not shown) [Compound 8, Actaeaepol]	–	same level of activity as YG	noticeably suppressed	8.25 ± 0.33	–	–	–	35	25
yunnanterpene G [YG]	notable inhibitions	–	–	–	–	–	–	–	–
